{
  "source": "patent US7465718B2",
  "about": "“Ansamycins having improved pharmacological and biological properties” (Conforma Therapeutics Corporation, priority 2002, dated 2008)",
  "key": {"PBMC": {"test_system": "PBMC", "assay": "MTS assay to measure cytotoxicity of PBMC", "assay_type": "cell-based, human", "conditions": "PBMCs without virus, read-out: TC50 (μM) (50% cytotoxicity)", "procedure": "PBMC's in 96 well plates that were treated with compounds (without virus) were assayed for cell viability and compound toxicity using an MTS assay (CellTiter 96 Aqueous Non-Radioactivity Cell Proliferation Assay, Promega, Madison; Wis.)."}, "HIV-1ROJO": {"test_system": "HIV-1ROJO", "assay": "Anti-HIV PBMC assay (reverse transcriptase activity in supernatant)"}, "Her-2": {"test_system": "Her-2", "assay": "HER2 inhibition assay (Her-2 degradation in MCF7 cells, flow cytometry)", "assay_type": "cell-based", "conditions": "read-out: HER-2 degradation (IC50 nM)", "procedure": "MCF7 cells are seeded in 24 well plates at a density of approximately 30,000 cells/well and allowed to grow for 16 hours in DMEM supplemented with 10% FBS. Drug is then added at a concentration range of 100 uM to 0.01 uM. Cells are incubated for an additional 24. […] 10,000 events were collected per sample. A fluorescence histogram was generated and the mean fluorescence intensity (mfi) of each sample was determined using Cellquest software. The background was defined as the mfi generated from cells incubated with control IgG, and was subtracted from each sample stained with the HER-2/neu Ab. Percent degradation of Her-2 was calculated as follows: % Her-2 degradation=(mfi HER-2 sample)/(mfi HER-2 untreated cells)×100 Water Solubility Studies"}, "[1]": {"assay": "Water solubility studies (salts dissolved in water at room temperature)", "assay_type": "physicochemical", "conditions": "thermodynamic from solid, HCl salt, read-out: Solubility of the HCl salt in H2O", "procedure": "Various salts were prepared as described in the example section and dissolved in water at room temperature."}, "A549 xenografts": {"test_system": "A549 xenografts", "assay": "A549 xenograft growth in vivo", "conditions": "IP injections, three consecutive days each week for four weeks", "from_the_text": "Similar efficacy has been seen with five second-generation ansamycins, some of which are being developed as back-ups to Compound#237."}, "MDA435 breast tumor": {"test_system": "MDA435 breast tumor", "assay": "MDA435 breast tumor model", "assay_type": "in vivo, nude mice", "conditions": "four courses of therapy; 25 or 30 mg/kg, 40 or 50 mg/kg", "procedure": "When the tumors were ˜50 mm3 in size, the animals were randomized into groups of five (10 tumors/group). Therapy commenced under the schedule described for the A549 model. Animals were treated with vehicle (triangles) or one of two doses (25 or 30 mg/kg, squares; 40 or 50 mg/kg, circles) of drugs."}, "SKOV-3 ovarian xenograft": {"test_system": "SKOV-3 ovarian xenograft", "assay": "SKOV-3 ovarian xenograft model", "assay_type": "in vivo", "conditions": "tumors 200 mm3 before commencement of treatment", "from_the_text": "Compounds have also been tested in HER-2 over-expressing tumor models such as BT474 breast and SKOV-3 ovarian carcinoma A therapy experiment with SKOV-3 is shown in FIG. 6. The treatment, doses, and schedule were the same as used in the A549 and MDA435 experiments. In this case, the tumors were allowed to become established and grow to a relatively large size (200 mm3) before commencement of treatment."}, "[2]": {"test_system": "primary human breast tumor xenograft", "assay": "Transplantable primary human breast tumor xenograft model", "assay_type": "in vivo", "conditions": "30 mg/kg intraperitoneally"}, "[3]": {"test_system": "HSP90 (cell lysate, high affinity)", "assay": "Biotin-geldanamycin competition binding, HSP90 in cell lysate (high affinity)"}, "rHsp90 (low affinity)": {"target": "rHsp90 (low affinity)", "assay": "Biotin-geldanamycin competition binding, purified native HSP90 protein (rHsp90, low affinity)", "conditions": "read-out: rHsp90 (low affinity) IC50 nM; inhibition of biotin-GM binding to purified HSP90, 4° C."}},
  "data": [
    {"compound": "Cc1cn([C@H]2C[C@H](N=[N+]=[N-])[C@@H](CO)O2)c(=O)[nH]c1=O", "note": "[AZT Control, reference compound]", "values": [
      {"measurement": "CC50", "setting": "PBMC", "result": "> 1", "unit": "µM"},
      {"measurement": "TI (therapeutic index, TC50/IC50)", "setting": "HIV-1ROJO; HIV-1ROJO in PBMCs", "result": ">197.6"},
      {"measurement": "IC50", "setting": "HIV-1ROJO; read-out: IC50 (μM) (50% inhibition of virus replication), HIV-1ROJO in fresh human PBMCs, 7 days", "result": 0.0051, "unit": "µM"}
    ]},
    {"compound": "COC1C=CC=C(C)C(=O)NC2=CC(=O)C(NCCCNCCCNC3=C4CC(C)CC(OC)C(O)C(C)C=C(C)C(OC(N)=O)C(OC)C=CC=C(C)C(=O)NC(=CC3=O)C4=O)=C(CC(C)CC(OC)C(O)C(C)C=C(C)C1OC(N)=O)C2=O", "note": "(stereo not shown) [Compound #237]", "values": [
      {"measurement": "IC50", "setting": "Her-2", "result": 20, "unit": "nM"},
      {"measurement": "solubility", "setting": "[1]", "result": "≥ 13", "unit": "mg/mL"},
      {"measurement": "growth of A549 xenografts", "setting": "A549 xenografts", "result": "blocks the growth"},
      {"measurement": "inhibition of tumor growth in MDA435", "setting": "MDA435 breast tumor", "result": "70 to 100", "unit": "%"},
      {"measurement": "tumor growth in SKOV-3 xenograft", "setting": "SKOV-3 ovarian xenograft", "result": "suppressed tumor growth almost completely"},
      {"measurement": "tumor growth inhibition in primary human breast tumor xenograft", "setting": "[2]", "result": 86, "unit": "%"},
      {"measurement": "melting point", "result": 165, "unit": "°C"},
      {"measurement": "ratio", "setting": "[3]; rHsp90 (low affinity) IC50 over lysate (high affinity) IC50", "result": 67},
      {"measurement": "IC50", "setting": "[3]; read-out: Lysate (high affinity) IC50 nM, inhibition of biotin-GM binding to HSP90 in cell lysate, 4° C.", "result": 30, "unit": "nM"},
      {"measurement": "IC50", "setting": "rHsp90 (low affinity)", "result": 2000, "unit": "nM"}
    ]}
  ]
}
